Measurements as given in US12433953B2, “Compositions and methods related to tumor activated antibodies targeting EGFR and effector cell antigens” (Janux Therapeutics, Inc., priority 2021, dated 2025).
Read-outs that look alike come from different tables or passages of the source. One block for each compound: values may come before it.

Experiments:
[1] = molecular target: EGFR Fab; experiment: ELISA binding of peptides to EGFR Fab; conditions: for EC50: read-out: EC50 for peptide binding to αEGFR Fab; for binding affinity for EGFR Fab (in words): among peptides of Table 14
[2] = molecular target: EGFR Fab binding to the EGFR antigen; experiment: ELISA competitive inhibition of EGFR Fab binding to EGFR antigen
[3] = read-out: IC50 for peptide inhibition of αEGFR Fab binding to EGFR antigen, Table 17
[4] = read-out: IC50 for peptide inhibition of αEGFR Fab binding to EGFR antigen, Table 18
[5] = Table 20, peptide-8 alanine scanning mutants, read-out: IC50
[6] = Table 21, peptide-8 alanine scanning mutants, read-out: IC50

SMILES: CC(C)C[C@H](NC(=O)[C@@H]1CSSC[C@H](NC(=O)[C@@H](N)Cc2c[nH]c3ccccc23)C(=O)N[C@@H]([C@@H](C)O)C(=O)N[C@@H](C(C)C)C(=O)N[C@@H](Cc2c[nH]c3ccccc23)C(=O)NCC(=O)N[C@@H](CC(=O)O)C(=O)N[C@@H](CCCNC(=N)N)C(=O)N[C@@H](CCC(N)=O)C(=O)N[C@@H](CCC(=O)O)C(=O)N[C@@H](C(C)C)C(=O)N[C@@H](CCCNC(=N)N)C(=O)N1)C(=O)O [Peptide-7]
EC50 ([1]; Table 15): > 1000 nM
IC50 [2, 3]: > 300 nM

SMILES: CC[C@H](C)[C@@H]1NC(=O)[C@H](Cc2c[nH]cn2)NC(=O)[C@H](CO)NC(=O)[C@H](CCCNC(=N)N)NC(=O)[C@@H](NC(=O)[C@@H]2CCCN2)CSSC[C@@H](C(=O)N[C@H](C(=O)O)C(C)C)NC(=O)[C@H]([C@@H](C)CC)NC(=O)[C@@H]2CCCN2C(=O)[C@H](CCCCN)NC(=O)[C@H](C)NC(=O)[C@H](C(C)C)NC(=O)[C@H](CC(=O)O)NC1=O [Peptide-8]
binding affinity for EGFR Fab (in words) [1]: strongest binding affinities (lowest EC50s)
EC50 ([1]; Table 15): 8 nM
EC50 ([1]; Table 24, peptide-8 optimization): 700 nM
inhibiting EGFR Fab binding to the EGFR antigen (in words) ([2]; among peptides of Table 14): most effective at inhibiting EGFR Fab binding to the EGFR antigen

SMILES: CSCC[C@@H]1NC(=O)[C@H](Cc2c[nH]c3ccccc23)NC(=O)[C@H](Cc2ccc(O)cc2)NC(=O)[C@H](Cc2c[nH]cn2)NC(=O)[C@H](C(C)C)NC(=O)[C@@H](NC(=O)[C@@H](NC(=O)[C@@H](N)CO)[C@@H](C)O)CSSC[C@@H](C(=O)N[C@H](C(=O)O)C(C)C)NC(=O)[C@H](CO)NC(=O)[C@H](CCCNC(=N)N)NC(=O)[C@H](CC(C)C)NC(=O)[C@H](CCC(N)=O)NC1=O [Peptide-9]
EC50 ([1]; Table 15): > 1000 nM
IC50 [2, 3]: > 300 nM

SMILES: CSCC[C@@H]1NC(=O)[C@H](C(C)C)NC(=O)[C@H](Cc2c[nH]c3ccccc23)NC(=O)[C@H](Cc2c[nH]cn2)NC(=O)[C@H](C)NC(=O)[C@@H](NC(=O)CNC(=O)CN)CSSC[C@@H](C(=O)N[C@@H](CCC(N)=O)C(=O)O)NC(=O)[C@H](Cc2c[nH]c3ccccc23)NC(=O)[C@H](CO)NC(=O)[C@H](CC(C)C)NC(=O)[C@H](CCCNC(=N)N)NC1=O [Peptide-10]
EC50 ([1]; Table 15): > 1000 nM
IC50 [2, 3]: > 300 nM

SMILES: CSCC[C@@H]1NC(=O)[C@H](CC(C)C)NC(=O)[C@H](Cc2ccccc2)NC(=O)[C@H](Cc2c[nH]cn2)NC(=O)[C@H](CCC(N)=O)NC(=O)[C@@H](NC(=O)CNC(=O)[C@@H](N)CC(C)C)CSSC[C@@H](C(=O)NCC(=O)O)NC(=O)[C@H]([C@@H](C)O)NC(=O)[C@H](C)NC(=O)[C@H](CC(C)C)NC(=O)[C@H](CCCCN)NC1=O [Peptide-11]
EC50 ([1]; Table 15): 42 nM
IC50 [2, 3]: > 300 nM

SMILES: CSCC[C@@H]1NC(=O)[C@H](CCCNC(=N)N)NC(=O)[C@H](C(C)C)NC(=O)[C@H](CCSC)NC(=O)[C@H](CCCNC(=N)N)NC(=O)[C@H](Cc2c[nH]cn2)NC(=O)[C@H](CC(C)C)NC(=O)CNC(=O)[C@H](CC(=O)O)NC(=O)CNC(=O)[C@@H](NC(=O)CN)CSSC[C@@H](C(=O)O)NC(=O)[C@H](Cc2c[nH]c3ccccc23)NC1=O [Peptide-12]
EC50 ([1]; Table 15): > 1000 nM
IC50 [2, 3]: > 300 nM

SMILES: CSCC[C@@H]1NC(=O)[C@H](C(C)C)NC(=O)[C@H]([C@@H](C)O)NC(=O)[C@@H](NC(=O)[C@H](C)N)CSSC[C@@H](C(=O)N[C@H](C(=O)O)C(C)C)NC(=O)[C@H](CCCNC(=N)N)NC(=O)[C@H](C(C)C)NC(=O)[C@H](CCC(=O)O)NC(=O)[C@H](CCC(N)=O)NC(=O)[C@H](CCCNC(=N)N)NC(=O)[C@H](C)NC(=O)CNC1=O [Peptide-13]
EC50 ([1]; Table 16): > 1000 nM
IC50 [2, 4]: > 300 nM

SMILES: CC[C@H](C)[C@@H]1NC(=O)[C@H](CC(C)C)NC(=O)[C@H](C)NC(=O)[C@@H]2CCCN2C(=O)[C@@H](NC(=O)[C@@H]2CCCN2)CSSC[C@@H](C(=O)N[C@H](C(=O)O)C(C)C)NC(=O)[C@H]([C@@H](C)CC)NC(=O)[C@H](C(C)C)NC(=O)[C@H](CCC(=O)O)NC(=O)[C@H](C)NC(=O)[C@H](C(C)C)NC(=O)[C@H](CC(=O)O)NC1=O [Peptide-14]
EC50 ([1]; Table 16): > 1000 nM
IC50 [2, 4]: > 300 nM

SMILES: CC(C)C[C@@H]1NC(=O)[C@H](CCC(N)=O)NC(=O)CNC(=O)[C@H](CCCNC(=N)N)NC(=O)[C@H](CCC(N)=O)NC(=O)[C@H](Cc2c[nH]c3ccccc23)NC(=O)[C@H](C(C)C)NC(=O)[C@H](CO)NC(=O)[C@H](CC(N)=O)NC(=O)[C@@H](NC(=O)[C@@H](N)Cc2ccc(O)cc2)CSSC[C@@H](C(=O)O)NC(=O)[C@H](Cc2c[nH]c3ccccc23)NC(=O)[C@H](Cc2ccc(O)cc2)NC1=O [Peptide-15]
binding affinity for EGFR Fab (in words) [1]: strongest binding affinities (lowest EC50s)
EC50 ([1]; Table 16): 7 nM
IC50 [2, 4]: > 300 nM

Fold shift in IC50 relative to Peptide-8 (IC50 Ala mutant/IC50 Peptide-8) ([2]; Table 20): 4.1
IC50 [2, 5]: 16000 nM
SMILES: CC[C@H](C)[C@@H]1NC(=O)[C@H](Cc2c[nH]cn2)NC(=O)[C@H](CO)NC(=O)[C@H](CCCNC(=N)N)NC(=O)[C@@H](NC(=O)[C@H](C)N)CSSC[C@@H](C(=O)N[C@H](C(=O)O)C(C)C)NC(=O)[C@H]([C@@H](C)CC)NC(=O)[C@@H]2CCCN2C(=O)[C@H](CCCCN)NC(=O)[C@H](C)NC(=O)[C@H](C(C)C)NC(=O)[C@H](CC(=O)O)NC1=O [Peptide-17]

Fold shift in IC50 relative to Peptide-8 (IC50 Ala mutant/IC50 Peptide-8) ([2]; Table 20): 1.4
IC50 [2, 5]: 5600 nM
SMILES: CC[C@H](C)[C@@H]1NC(=O)[C@H](Cc2c[nH]cn2)NC(=O)[C@H](CO)NC(=O)[C@H](C)NC(=O)[C@@H](NC(=O)[C@@H]2CCCN2)CSSC[C@@H](C(=O)N[C@H](C(=O)O)C(C)C)NC(=O)[C@H]([C@@H](C)CC)NC(=O)[C@@H]2CCCN2C(=O)[C@H](CCCCN)NC(=O)[C@H](C)NC(=O)[C@H](C(C)C)NC(=O)[C@H](CC(=O)O)NC1=O [Peptide-18]

Fold shift in IC50 relative to Peptide-8 (IC50 Ala mutant/IC50 Peptide-8) ([2]; Table 20): 24
IC50 [2, 5]: 93000 nM
SMILES: CC[C@H](C)[C@@H]1NC(=O)[C@H](Cc2c[nH]cn2)NC(=O)[C@H](C)NC(=O)[C@H](CCCNC(=N)N)NC(=O)[C@@H](NC(=O)[C@@H]2CCCN2)CSSC[C@@H](C(=O)N[C@H](C(=O)O)C(C)C)NC(=O)[C@H]([C@@H](C)CC)NC(=O)[C@@H]2CCCN2C(=O)[C@H](CCCCN)NC(=O)[C@H](C)NC(=O)[C@H](C(C)C)NC(=O)[C@H](CC(=O)O)NC1=O [Peptide-19]

Fold shift in IC50 relative to Peptide-8 (IC50 Ala mutant/IC50 Peptide-8) ([2]; Table 20): 2.8
IC50 [2, 5]: 11000 nM
SMILES: CC[C@H](C)[C@@H]1NC(=O)[C@H](C)NC(=O)[C@H](CO)NC(=O)[C@H](CCCNC(=N)N)NC(=O)[C@@H](NC(=O)[C@@H]2CCCN2)CSSC[C@@H](C(=O)N[C@H](C(=O)O)C(C)C)NC(=O)[C@H]([C@@H](C)CC)NC(=O)[C@@H]2CCCN2C(=O)[C@H](CCCCN)NC(=O)[C@H](C)NC(=O)[C@H](C(C)C)NC(=O)[C@H](CC(=O)O)NC1=O [Peptide-20]

Fold shift in IC50 relative to Peptide-8 (IC50 Ala mutant/IC50 Peptide-8) ([2]; Table 20): 0.5
IC50 [2, 5]: 1950 nM
SMILES: CC[C@H](C)[C@@H]1NC(=O)[C@@H]2CCCN2C(=O)[C@H](CCCCN)NC(=O)[C@H](C)NC(=O)[C@H](C(C)C)NC(=O)[C@H](CC(=O)O)NC(=O)[C@H](C)NC(=O)[C@H](Cc2c[nH]cn2)NC(=O)[C@H](CO)NC(=O)[C@H](CCCNC(=N)N)NC(=O)[C@@H](NC(=O)[C@@H]2CCCN2)CSSC[C@@H](C(=O)N[C@H](C(=O)O)C(C)C)NC1=O [Peptide-21]

IC50 [2, 5]: > 100000 nM
SMILES: CC[C@H](C)[C@@H]1NC(=O)[C@H](Cc2c[nH]cn2)NC(=O)[C@H](CO)NC(=O)[C@H](CCCNC(=N)N)NC(=O)[C@@H](NC(=O)[C@@H]2CCCN2)CSSC[C@@H](C(=O)N[C@H](C(=O)O)C(C)C)NC(=O)[C@H]([C@@H](C)CC)NC(=O)[C@@H]2CCCN2C(=O)[C@H](CCCCN)NC(=O)[C@H](C)NC(=O)[C@H](C(C)C)NC(=O)[C@H](C)NC1=O [Peptide-22]

Fold shift in IC50 relative to Peptide-8 (IC50 Ala mutant/IC50 Peptide-8) ([2]; Table 21): 2.7
IC50 [2, 6]: 3800 nM
SMILES: CC[C@H](C)[C@@H]1NC(=O)[C@H](Cc2c[nH]cn2)NC(=O)[C@H](CO)NC(=O)[C@H](CCCNC(=N)N)NC(=O)[C@@H](NC(=O)[C@@H]2CCCN2)CSSC[C@@H](C(=O)N[C@H](C(=O)O)C(C)C)NC(=O)[C@H]([C@@H](C)CC)NC(=O)[C@@H]2CCCN2C(=O)[C@H](CCCCN)NC(=O)[C@H](C)NC(=O)[C@H](C)NC(=O)[C@H](CC(=O)O)NC1=O [Peptide-23]

IC50 [2, 6]: > 100000 nM
SMILES: CC[C@H](C)[C@@H]1NC(=O)[C@H](Cc2c[nH]cn2)NC(=O)[C@H](CO)NC(=O)[C@H](CCCNC(=N)N)NC(=O)[C@@H](NC(=O)[C@@H]2CCCN2)CSSC[C@@H](C(=O)N[C@H](C(=O)O)C(C)C)NC(=O)[C@H]([C@@H](C)CC)NC(=O)[C@@H]2CCCN2C(=O)[C@H](C)NC(=O)[C@H](C)NC(=O)[C@H](C(C)C)NC(=O)[C@H](CC(=O)O)NC1=O [Peptide-24]

IC50 [2, 6]: > 100000 nM
SMILES: CC[C@H](C)[C@@H]1NC(=O)[C@H](C)NC(=O)[C@H](CCCCN)NC(=O)[C@H](C)NC(=O)[C@H](C(C)C)NC(=O)[C@H](CC(=O)O)NC(=O)[C@H]([C@@H](C)CC)NC(=O)[C@H](Cc2c[nH]cn2)NC(=O)[C@H](CO)NC(=O)[C@H](CCCNC(=N)N)NC(=O)[C@@H](NC(=O)[C@@H]2CCCN2)CSSC[C@@H](C(=O)N[C@H](C(=O)O)C(C)C)NC1=O [Peptide-25]

IC50 [2, 6]: > 100000 nM
SMILES: CC[C@H](C)[C@@H]1NC(=O)[C@H](Cc2c[nH]cn2)NC(=O)[C@H](CO)NC(=O)[C@H](CCCNC(=N)N)NC(=O)[C@@H](NC(=O)[C@@H]2CCCN2)CSSC[C@@H](C(=O)N[C@H](C(=O)O)C(C)C)NC(=O)[C@H](C)NC(=O)[C@@H]2CCCN2C(=O)[C@H](CCCCN)NC(=O)[C@H](C)NC(=O)[C@H](C(C)C)NC(=O)[C@H](CC(=O)O)NC1=O [Peptide-26]

Fold shift in IC50 relative to Peptide-8 (IC50 Ala mutant/IC50 Peptide-8) ([2]; Table 21): 2.2
IC50 [2, 6]: 3100 nM
SMILES: CC[C@H](C)[C@@H]1NC(=O)[C@H](Cc2c[nH]cn2)NC(=O)[C@H](CO)NC(=O)[C@H](CCCNC(=N)N)NC(=O)[C@@H](NC(=O)[C@@H]2CCCN2)CSSC[C@@H](C(=O)N[C@@H](C)C(=O)O)NC(=O)[C@H]([C@@H](C)CC)NC(=O)[C@@H]2CCCN2C(=O)[C@H](CCCCN)NC(=O)[C@H](C)NC(=O)[C@H](C(C)C)NC(=O)[C@H](CC(=O)O)NC1=O [Peptide-27]
